Where a SMILES comes first, the peptide text is derived from it. [ ]: non-standard residue; d: D form. αMeP = C[C@@]1(C(=O)O)CCCN1
How the values were obtained:
Assay type in all cases: physicochemical
[1] = Long-term (6 month) chemical stability, total impurities by HPLC; conditions: for Total Impurities: 25 ± 2° C./60 ± 5% RH
Protocol: The long-term (6 month) chemical stability of Form A and amorphous trofinetide were tested under the same conditions: 25±2° C./60±5% relative humidity (RH). […] [table]

[2] = Dynamic vapor sorption-desorption (DVS) analysis
Protocol: DVS analysis was carried out TA Instruments Q5000 Dynamic Vapor Sorption analyzer. The instrument was calibrated with standard weights and a sodium bromide standard for humidity. Samples were analyzed at 25° C. with a maximum equilibration time of 60 minutes in 10% relative humidity (RH) steps from 5 to 95% RH (adsorption cycle) and from 95 to 5% RH (desorption cycle). Form A is non-hygroscopic.

[3] = Stability under humidity conditions (two days exposure, XRPD / water content)

Total Impurities ([1]; 3 months)	Total Impurities ([1]; 6 months)	Total Impurities ([1]; Initial)	Total Impurities ([1]; 1 month)	Hygroscopicity ([2]; 25° C.)	Solid form after DVS by XRPD ([2]; after DVS)	Moisture uptake (adsorption cycle) ([2]; exposed from 5% RH to 95% RH)	Moisture loss (desorption cycle) ([2]; exposed from 95% RH to 5% RH)	Solid form change under extreme dry conditions (XRPD) ([3]; open container exposed under 0% RH for two days)	Long-term chemical stability compared with amorphous trofinetide ([1]; 6 month, 25±2° C./60±5% RH)	Structure (SMILES)	Stability under humidity conditions ([3]; large range of humidity conditions)
0.6%	0.9%	0.2%								C[C@@]1(C(=O)N[C@@H](CCC(=O)O)C(=O)O)CCCN1C(=O)CN [amorphous trofinetide (Batch 2), glycyl-L-2-methylprolyl-L-glutamic acid] (H-Gly-[αMeP]-Glu-OH)	
0.8%	1.0%	0.3%	0.3%							C[C@@]1(C(=O)N[C@@H](CCC(=O)O)C(=O)O)CCCN1C(=O)CN [amorphous trofinetide (Batch 1), glycyl-L-2-methylprolyl-L-glutamic acid] (H-Gly-[αMeP]-Glu-OH)	
0.6%	0.8%	0.2%	0.2%							C[C@@]1(C(=O)N[C@@H](CCC(=O)O)C(=O)O)CCCN1C(=O)CN [amorphous trofinetide (Batch 3), glycyl-L-2-methylprolyl-L-glutamic acid] (H-Gly-[αMeP]-Glu-OH)	
0.03%	<PLOQ	<PLOQ	0.0%	non-hygroscopic	remained as trofinetide Form A	little moisture uptake	little moisture loss	lost the water and became disordered	more stable than amorphous trofinetide	C[C@@]1(C(=O)N[C@@H](CCC(=O)O)C(=O)O)CCCN1C(=O)CN [Form A, (2S)-2-[[(2S)-1-(2-aminoacetyl)-2-methylpyrrolidine-2-carbonyl]amino]pentanedioic acid] (H-Gly-[αMeP]-Glu-OH)	stable under a large range of humidity conditions
